The source of these data is ChEMBL document CHEMBL6083195, “Cornulacin: a new isoflavone from Cornulaca monacantha and its isolation, structure elucidation and cytotoxicity through EGFR-mediated apoptosis” (RSC Med Chem, 2024).

pIC50: −log10 of the molar value. Bounds are passed on as bounds.

In one test the test system is KB. Briefly: Cytotoxicity against human KB cells. In kind it is functional, cell-based.
The test system of a further test is PANC-1. Put plainly: Cytotoxicity against human PANC-1 cells by MTT assay. The format is functional, cell-based.
Test [1] has as its system A2780. Put plainly: Cytotoxicity against human A2780 cells by MTT assay. The format is functional, cell-based. A general note: Tetrazolium assays rely on reduction of a dye to a coloured formazan, in cell work by metabolically active cells.
The subject of test [2] is A2780. Put plainly: Induction of apoptosis in human A2780 cells assessed as fold increase in caspase-9 mRNA level at IC50 incubated for 48 hrs by RT-PCR analysis relative to control. In kind it is functional.
Test [3] has as its system A2780. Briefly: Induction of cell cycle arrest in human A2780 cells assessed as accumulation at S phase at IC50 incubated for 48 hrs by flow cytometry (reference value: 30.6 %). The format is functional. Background: A flow cytometer gives signals particle by particle.
Test [4] has as its system A2780. Briefly: Induction of apoptosis in human A2780 cells assessed as necrotic cells at IC50 incubated for 48 hrs by Annexin V-FITC/PI staining based flow cytometry (reference value: 1.52 %). In kind it is functional.
Test [5] deals with A2780. Briefly: Induction of apoptosis in human A2780 cells assessed as fold increase in Bax mRNA level at IC50 incubated for 48 hrs by RT-PCR analysis relative to control. The format is functional.
The subject of test [6] is A2780. Put plainly: Induction of apoptosis in human A2780 cells assessed as fold increase in caspase-3 mRNA level at IC50 incubated for 48 hrs by RT-PCR analysis relative to control. The format is functional.
Test [7] relates to A2780. Put plainly: Induction of apoptosis in human A2780 cells assessed as late apoptotic cells at IC50 incubated for 48 hrs by Annexin V-FITC/PI staining based flow cytometry (reference value: 0.23 %). In kind it is functional.
For test [8], the system named is A2780. Briefly: Induction of apoptosis in human A2780 cells assessed as fold increase in P53 mRNA level at IC50 incubated for 48 hrs by RT-PCR analysis relative to control. The format is functional.
Test [9] concerns A2780. Put plainly: Induction of apoptosis in human A2780 cells assessed as early apoptotic cells at IC50 incubated for 48 hrs by Annexin V-FITC/PI staining based flow cytometry (reference value: 0.72 %). The format is functional.
Test [10] has as its system A2780. Put plainly: Induction of apoptosis in human A2780 cells assessed as fold increase in caspase-8 mRNA level at IC50 incubated for 48 hrs by RT-PCR analysis relative to control. The format is functional.
A further test has as its system WISH. Briefly: Cytotoxicity against human WISH cells by MTT assay. In kind it is functional, cell-based.
Test [11] deals with A2780. Briefly: Induction of cell cycle arrest in human A2780 cells assessed as accumulation at G2/M phase at IC50 incubated for 48 hrs by flow cytometry (reference value: 27.5 %). In kind it is functional.
The subject of test [12] is A2780. Briefly: Induction of cell cycle arrest in human A2780 cells assessed as accumulation at G1 phase at IC50 incubated for 48 hrs by flow cytometry (reference value: 41.8 %). The format is functional.
The subject of test [13] is A2780. Briefly: Induction of apoptosis in human A2780 cells assessed as fold decrease in Bcl-2 mRNA level at IC50 incubated for 48 hrs by RT-PCR analysis relative to control. In kind it is functional.
Test [14] deals with A2780. Briefly: Induction of apoptosis in human A2780 cells assessed as total apoptotic cell death at IC50 incubated for 48 hrs by Annexin V-FITC/PI staining based flow cytometry (reference value: 0.955 %). The format is functional.

`COc1cc(OC)c(-c2coc3c4c(c(OC)cc3c2=O)OC(C)(C)C=C4)cc1OC`: the pIC50 with KB was 5.70.
For `COc1cc([C@H]2c3cc(O)c(OC)cc3/C(=C\C(=O)NCCc3ccc(O)cc3)[C@H]2C(=O)NCCc2ccc(O)cc2)ccc1O`, the pIC50 with PANC-1 is 4.62; in the test on A2780 [1], 4.51.
For `COc1cc(/C=C(\Oc2ccc(/C=C/C(=O)NCCc3ccc(O)cc3)cc2OC)C(=O)NCCc2ccc(O)cc2)ccc1O`, in that order: 4.71 and 4.60.
As for `C#Cc1cccc(Nc2ncnc3cc(OCCOC)c(OCCOC)cc23)c1` [ERLOTINIB], the pIC50 in the test with PANC-1 was 5.66; in the test on A2780 [1], 5.95.
On to `COCc1c(O)cc2occ(-c3ccccc3O)c(=O)c2c1OC`, for which the “fold change (FC)” value with A2780 [2] is 8.08; with A2780 [5], 5.4; in the test on A2780 [6] it was 8.1; in the test with A2780 [8], 6.7; in the test with A2780 [10], 6.09; in the test with A2780 [13], 0.3. The figures for the pIC50 in the test with PANC-1, in the test with A2780 [1] and in the test with WISH were 5.19, 5.68 and not above 4.00, respectively. Further, the Activity is reported as 43.3% with A2780 [3]; 7.54% in the test with A2780 [4]; 14.48% with A2780 [7]; 29.17% in the test on A2780 [9]; 10.48% in the test on A2780 [11]; 46.2% with A2780 [12]. Moreover, the Activity in the test on A2780 [14] stood at 43.65%.
Consider `COc1cc(/C=C/C(=O)NCCc2ccc(O)c(OC)c2)ccc1O`, for which the pIC50 in the test with PANC-1 was 5.15; in the test with A2780 [1] it was 5.54.
For `COc1cc(/C=C/C(=O)NCCc2ccc(O)cc2)ccc1O` [N-TRANS-FERULOYL TYRAMINE], in that order: 5.47 and 5.04.
For `O=C(/C=C/c1ccc(O)c(O)c1)NCCc1ccc(O)cc1`, in that order: 5.14 and 4.95.

By pIC50 is commonly meant the negative decadic logarithm of the IC50, by convention in mol/L. High values mean a small IC50, low ones a large IC50.
